Test results as given in ChEMBL document CHEMBL4673353, “Switching a Xanthine Oxidase Inhibitor to a Dual-Target Antagonist of P2Y and P2Y as an Oral Antiplatelet Agent with a Wider Therapeutic Window in Rats than Ticagrelor” (J Med Chem, 2020).
The source made the active and inactive calls. The rule behind the calls is not given here.

Key:
[1] = target: T1, P2Y purinoceptor 12 (Homo sapiens, UniProt Q9H244); experiment: Antagonist activity at P2Y12 in human whole blood assessed as suppression of ADP-induced decrease in PGE1-induced VASP phosphorylation measured after 10 mins by immunostaining based flow cytometric analysis; format: tissue-based
T1 sequence (Q9H244 whole entry): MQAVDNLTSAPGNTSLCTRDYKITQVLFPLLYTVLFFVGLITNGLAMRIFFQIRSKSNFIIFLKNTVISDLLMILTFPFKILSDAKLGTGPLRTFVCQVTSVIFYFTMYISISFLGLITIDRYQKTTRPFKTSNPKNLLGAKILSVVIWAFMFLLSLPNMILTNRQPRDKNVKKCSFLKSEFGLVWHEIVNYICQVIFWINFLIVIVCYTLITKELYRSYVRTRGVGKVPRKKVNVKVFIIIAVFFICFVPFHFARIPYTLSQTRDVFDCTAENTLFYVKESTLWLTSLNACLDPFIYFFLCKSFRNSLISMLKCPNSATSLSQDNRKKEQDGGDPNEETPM

[2] = target: T1, P2Y purinoceptor 12; experiment: Agonist activity at P2Y12 in human whole blood assessed as decrease in PGE1-induced VASP phosphorylation at 100 to 200 uM measured after 10 mins by immunostaining based flow cytometric analysis; format: tissue-based; conditions: dose 100-200 µM
[3] = target: Xanthine dehydrogenase/oxidase (Bos taurus, UniProt P80457); experiment: Inhibition of bovine xanthine oxidase assessed as reduction in uric acid formation at 10 uM using xanthine as substrate preincubated for 15 mins followed by substrate addition measured at 30 sec interval for upto 2 mins by spectrophotometric analysis relative to control; conditions: cattle, time 17 min
Sequence of Xanthine dehydrogenase/oxidase (P80457 whole entry): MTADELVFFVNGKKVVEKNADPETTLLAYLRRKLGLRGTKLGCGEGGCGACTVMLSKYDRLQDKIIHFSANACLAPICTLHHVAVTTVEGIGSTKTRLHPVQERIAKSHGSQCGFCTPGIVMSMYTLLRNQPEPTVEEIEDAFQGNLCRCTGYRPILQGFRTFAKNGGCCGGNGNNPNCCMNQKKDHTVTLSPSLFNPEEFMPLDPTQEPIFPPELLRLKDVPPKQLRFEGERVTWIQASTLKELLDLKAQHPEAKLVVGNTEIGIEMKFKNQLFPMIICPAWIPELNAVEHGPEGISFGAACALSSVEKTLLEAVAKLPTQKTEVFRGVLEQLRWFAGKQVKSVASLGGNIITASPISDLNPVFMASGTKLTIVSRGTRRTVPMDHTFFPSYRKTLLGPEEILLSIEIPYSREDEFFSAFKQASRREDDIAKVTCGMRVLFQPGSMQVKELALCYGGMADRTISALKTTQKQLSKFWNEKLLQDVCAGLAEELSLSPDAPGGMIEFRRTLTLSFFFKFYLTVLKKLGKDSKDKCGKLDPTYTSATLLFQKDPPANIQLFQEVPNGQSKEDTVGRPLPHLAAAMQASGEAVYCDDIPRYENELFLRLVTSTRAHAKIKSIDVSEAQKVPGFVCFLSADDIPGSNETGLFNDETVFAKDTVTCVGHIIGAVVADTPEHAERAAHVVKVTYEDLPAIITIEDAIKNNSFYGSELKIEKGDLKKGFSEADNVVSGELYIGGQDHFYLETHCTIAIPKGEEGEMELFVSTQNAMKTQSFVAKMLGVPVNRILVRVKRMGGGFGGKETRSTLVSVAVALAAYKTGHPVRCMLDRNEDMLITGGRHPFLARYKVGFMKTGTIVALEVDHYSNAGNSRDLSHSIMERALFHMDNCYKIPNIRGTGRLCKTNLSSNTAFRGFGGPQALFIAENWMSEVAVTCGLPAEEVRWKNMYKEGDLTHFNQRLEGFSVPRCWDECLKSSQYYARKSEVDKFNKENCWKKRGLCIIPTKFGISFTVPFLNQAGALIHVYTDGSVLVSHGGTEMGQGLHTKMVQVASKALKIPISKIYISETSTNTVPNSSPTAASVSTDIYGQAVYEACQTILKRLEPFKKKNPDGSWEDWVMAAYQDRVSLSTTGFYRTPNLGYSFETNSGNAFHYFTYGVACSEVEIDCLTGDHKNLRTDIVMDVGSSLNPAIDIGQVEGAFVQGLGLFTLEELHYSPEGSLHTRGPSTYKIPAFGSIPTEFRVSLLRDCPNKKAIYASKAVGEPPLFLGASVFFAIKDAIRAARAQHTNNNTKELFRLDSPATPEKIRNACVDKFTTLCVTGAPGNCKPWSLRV

[4] = Tmax in male Sprague-Dawley rat at 10 mg/kg, iv administered as single dose by LC-MS analysis; format: ADME, organism-based; conditions: in vivo
[5] = Apparent volume of distribution in male Sprague-Dawley rat at 10 mg/kg, iv administered as single dose by LC-MS analysis; format: ADME, organism-based; conditions: in vivo, read-out: Vz
[6] = Metabolic stability of compound in rat liver microsomes assessed as intrinsic clearance per mg protein at 0.2 uM in presence of NADPH measured up to 90 mins by LC-MS/MS analysis; format: ADME, Microsome; conditions: 1.5 h
[7] = Drug metabolism in rat liver microsomes assessed as 1-[(4-Cyanobenzyl)oxy]-2-(3-cyanophenyl)-4-methyl-1H-imidazole-5-carboxylic acid formation at 0.2 uM in presence of NADPH measured up to 90 mins by LC-MS/MS analysis; format: ADME, Microsome; conditions: 1.5 h
[8] = Oral bioavailability in male Sprague-Dawley rat at 10 mg/kg administered as single dose by LC-MS analysis; format: ADME, organism-based; conditions: in vivo
[9] = Prodrug conversion in male Sprague-Dawley rat assessed as 1-[(4-Cyanobenzyl)oxy]-2-(3-cyanophenyl)-4-methyl-1H-imidazole-5-carboxylic acid formation at 10 mg/kg, po measured at 10 mins by LC-MS analysis; format: ADME, organism-based; conditions: in vivo
[10] = Acute toxicity in Kunming mouse assessed as death at 2000 mg/kg, ig administered as single dose monitored every day up to14 days; format: organism-based; conditions: in vivo, po, 336 h, time 14 day
[11] = Acute toxicity in Kunming mouse assessed as increase in body weight at 2000 mg/kg, ig administered as single dose monitored every day up to14 days; format: organism-based; conditions: in vivo, po, 336 h, time 14 day

IC50 [1]	Activity [2]	inhibition at 10 µM [3]	Tmax [4]	Vd [5]	SMILES	CLH [6]	Drug metabolism [7]	bioavailability [8]	Drug metabolism [9]	Activity [10]	Activity [11]
149 µM	inactive	< 50%	8.4 min	21.3 L/kg	Cc1nc(-c2cccc(C#N)c2)n(OCc2ccc(C#N)cc2)c1C(=O)O	–	–	–	–	–	–
–	–	–	–	–	CCOC(=O)c1c(C)nc(-c2cccc(C#N)c2)n1OCc1ccc(C#N)cc1	0.06 mL/min	Metabolite_Detected	32.4%	Metabolite_Detected	Non-Toxic	Non-Toxic
